# According to patent publication US9303042B2, “Triazolothienopyrimidine compound inhibitors of urea transporters and methods of using inhibitors” (The Regents of the University of California, priority 2012, dated 2016):
# Tests used:
# mice = test: Urinary concentration in mice; format: in vivo, mouse
# Method: In some studies, mice were placed on low, normal or […] diets (4%, 20% or 40% casein, Harlan Labs.) for 1 week prior study of dDAVP effects. […] Urea concentration was determined by a colorimetric enzymatic assay as described above. Measurements were also done in the absence of dDAVP in which urine was collected during free access to food and water. […]
# AQP1 = target: T1, AQP1 (Mus musculus, UniProt Q02013); test: Erythrocyte osmotic water permeability by stopped-flow light scattering, wild type erythrocytes; format: cell-based; conditions: 100 mM sucrose gradient, 10 °C
# T1 construct: endogenous in cells; host or cells: erythrocytes of wild-type CD1 mice
# T1 sequence (Q02013 1-269): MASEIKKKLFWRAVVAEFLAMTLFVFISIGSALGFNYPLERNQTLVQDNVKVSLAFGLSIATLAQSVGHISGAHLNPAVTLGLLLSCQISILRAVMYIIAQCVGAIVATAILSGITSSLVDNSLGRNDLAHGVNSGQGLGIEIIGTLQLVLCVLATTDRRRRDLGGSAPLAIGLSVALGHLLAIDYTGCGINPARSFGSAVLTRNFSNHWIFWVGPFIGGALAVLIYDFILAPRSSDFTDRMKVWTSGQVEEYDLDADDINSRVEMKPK
# Method: Erythrocyte urea and water permeabilities were measured by stopped-flow light scattering using a Hi-Tech Sf-51 instrument (Wiltshire, UK). […] Urea permeability and percentage inhibition were computed as described (see, e.g., Levin et al., FASEB J. supra, 2007)). In some experiments, different urea gradients (25-200 mM) were used, or inhibitor was added only to the erythrocyte-containing or urea-containing solutions. In some experiments an outwardly directed urea gradient was used in which erythrocytes were incubated for 30 min with PBS containing specified urea and mixed in the stopped-flow apparatus with PBS. In reversibility experiments, erythrocytes were incubated for 30 min with inhibitor, washed three times to remove inhibitor, and urea transport assayed. Osmotic water permeability was measured using a 100 mM gradient of sucrose.
# Erythrocyte osmotic water permeability was measured by stopped-flow light scattering. […] Life Sci. 52:474-78 (2009)).
# [1] = free access to food and water, no dDAVP, 300 μg
compound,measurement,setting,value
"CCc1ccc(S(=O)(=O)c2nnn3c2nc(NCc2cccs2)c2sccc23)cc1 [UTBinh-14, [3-(4-Ethyl-benzenesulfonyl)-thieno[2,3-e][1,2,3]triazolo[1,5-a]pyrimidin-5-yl]-thiophen-2-ylmethylamine]","urine osmolality, UT-B knockout mice","mice; 300 μg intraperitoneal, dDAVP",did not significantly reduce
same,"urine urea concentration, UT-B knockout mice","mice; 300 μg intraperitoneal, dDAVP",did not significantly reduce
same,"urine osmolality, wild type mice","mice; 300 μg intraperitoneal, dDAVP 1 h later",significantly reduced
same,"effect on dDAVP-stimulated urinary concentration, low-protein diet","mice; 1 week low-protein diet, 300 μg",little effect
same,urine osmolality,mice; [1],reduced
same,urine urea concentration,mice; [1],reduced
same,urine volume,mice; [1],significantly increased
same,inhibition of water transport in erythrocytes from wild type mice,AQP1,no significant inhibition
